Laboratory results reported in US10508120B2, “TYK2 inhibitors and uses thereof” (Nimbus Lakshmi, Inc., priority 2017, dated 2019).

Biological target: human TYK2 (JH2domain-pseudokinase) (Homo sapiens (Human), UniProt P29597)
Experiment: TYK2 JH2 Domain Binding Assay (KINOMEscan)
Protocol: Binding constants for compounds of the present invention against the JH2 domain were determined by the following protocol for a KINOMEscan® assay (DiscoveRx). A fusion protein of a partial length construct of human TYK2 (JH2domain-pseudokinase) (amino acids G556 to D888 based on reference sequence NP_003322.3) and the DNA binding domain of NFkB was expressed in transiently transfected HEK293 cells. From these HEK 293 cells, extracts were prepared in M-PER extraction buffer (Pierce) in the presence of Protease Inhibitor Cocktail Complete (Roche) and Phosphatase Inhibitor Cocktail Set II (Merck) per manufacturers' instructions. The TYK2 (JH2domain-pseudokinase) fusion protein was labeled with a chimeric double-stranded DNA tag containing the NFkB binding site (5′-[…]-3′) fused to an amplicon for qPCR readout, which was added directly to the expression extract (the final concentration of DNA-tag in the binding reaction is 0.1 nM).
The liganded beads were blocked with excess biotin and washed with blocking buffer (SeaBlock (Pierce), 1% BSA, 0.05% Tween 20, 1 mM DTT) to remove unbound ligand and to reduce nonspecific binding.
Extracts were used directly in binding assays without any enzyme purification steps at a ≥10,000-fold overall stock dilution (final DNA-tagged enzyme concentration <0.1 nM). Extracts were loaded with DNA-tag and diluted into the binding reaction in a two step process. First extracts were diluted 1:100 in 1× binding buffer (PBS/0.05% Tween 20/10 mM DTT/0.1% BSA/2 μg/ml sonicated salmon sperm DNA) containing 10 nM DNA-tag. This dilution was allowed to equilibrate at room temperature for 15 minutes and then subsequently diluted 1:100 in 1× binding buffer. […] Kds were determined using an 11-point 3-fold compound dilution series with three DMSO control points. […] The compounds were then diluted directly into the assays such that the final concentration of DMSO was 0.9%. All reactions performed in polypropylene 384-well plates. Each was a final volume of 0.02 mL. Assays were incubated with shaking for 1 hour at room temperature. Then the beads were pelleted and washed with wash buffer (1×PBS, 0.05% Tween 20) to remove displaced kinase and test compound. […] The qPCR protocol consisted of a 10 minute hot start at 95° C., followed by 35 cycles of 95° C. for 15 seconds, 60° C. for 1 minute.
Kds were determined using an 11-point 3-fold compound dilution series with three DMSO control points. […] The compounds were then diluted directly into the assays such that the final concentration of DMSO was 0.9%. The Kds were determined using a compound top concentration of 30,000 nM. Kd measurements were performed in duplicate.
Binding constants (Kds) were calculated with a standard dose-response curve using the Hill equation: […]
The Hill Slope was set to −1.

human TYK2 (JH2domain-pseudokinase), sequence (P29597 556-888): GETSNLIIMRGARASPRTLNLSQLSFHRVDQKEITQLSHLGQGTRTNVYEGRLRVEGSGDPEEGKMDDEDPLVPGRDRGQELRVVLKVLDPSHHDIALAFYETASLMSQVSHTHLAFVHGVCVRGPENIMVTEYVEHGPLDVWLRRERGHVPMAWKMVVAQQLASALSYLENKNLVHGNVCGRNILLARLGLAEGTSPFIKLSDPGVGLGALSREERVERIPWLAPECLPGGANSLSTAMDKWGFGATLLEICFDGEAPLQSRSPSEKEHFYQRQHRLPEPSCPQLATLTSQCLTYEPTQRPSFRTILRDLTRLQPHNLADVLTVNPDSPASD

Kd [nM] | SMILES
< 0.2 | CNc1cc(Nc2cccn([C@H]3C[C@@H]3F)c2=O)nc2c(C(=O)N[C@H]3CC[C@@H]3OC)cnn12 [I-1204]
< 0.2 | CNc1cc(Nc2cccn([C@@H]3C[C@H]3F)c2=O)nc2c(C(=O)N[C@H]3CC[C@@H]3OC)cnn12 [I-1205]
0.2 to 1 | CNc1cc(Nc2cccn(C3CC(F)(F)C3)c2=O)nc2c(C(=O)N[C@@H]3CC[C@@H](OC)C3)cnn12 [I-1210]
< 0.2 | CNc1cc(Nc2cccn([C@H]3CCCN(CCF)C3)c2=O)nc2c(C(=O)N[C@H]3CC[C@@H]3OC)cnn12 [I-1215]
0.2 to 1 | CNc1cc(Nc2cccn([C@H]3CCCN(CCF)C3)c2=O)nc2c(C(=O)N[C@@H]3CC[C@H]3OC)cnn12 [I-1216]
< 0.2 | CNc1cc(Nc2cccn([C@@H]3CCC[C@H](C#N)C3)c2=O)nc2c(C(=O)N[C@@H]3C[C@@H]3F)cnn12 [I-1219]
0.2 to 1 | CNc1cc(Nc2cccn([C@H]3CCC[C@@H](C#N)C3)c2=O)nc2c(C(=O)N[C@@H]3C[C@@H]3F)cnn12 [I-1220]
< 0.2 | CNc1cc(Nc2cccn([C@@H]3C[C@H]3OC)c2=O)nc2c(C(=O)NC3CC3)cnn12 [I-1227]
1 to 10 | CNc1cc(Nc2cccn([C@H]3C[C@@H]3OC)c2=O)nc2c(C(=O)NC3CC3)cnn12 [I-1228]
1 to 10 | CNc1cc(Nc2cccn([C@@H]3C[C@H]3OC)c2=O)nc2c(C(=O)N[C@H]3CC[C@@H]3OC)cnn12 [I-1233]
0.2 to 1 | CNc1cc(Nc2cccn([C@H]3C[C@@H]3OC)c2=O)nc2c(C(=O)N[C@H]3CC[C@@H]3OC)cnn12 [I-1234]
< 0.2 | CNc1cc(Nc2cccn([C@@H]3CCC[C@H](C#N)C3)c2=O)nc2c(C(=O)NC3CC3)cnn12 [I-1244]
0.2 to 1 | CNc1cc(Nc2cccn([C@H]3CCC[C@@H](C#N)C3)c2=O)nc2c(C(=O)NC3CC3)cnn12 [I-1245]
< 0.2 | CNc1cc(Nc2cccn([C@H]3CCCOC3)c2=O)nc2c(C(=O)N[C@@H]3C[C@H]3OC)cnn12 [I-1248]
< 0.2 | CNc1cc(Nc2cccn([C@H]3CCCOC3)c2=O)nc2c(C(=O)N[C@H]3C[C@@H]3OC)cnn12 [I-1249]
< 0.2 | CNc1cc(Nc2cccn([C@H]3CC[C@@H]3O)c2=O)nc2c(C(=O)N[C@@H]3CCC[C@@H](OC)C3)cnn12 [I-1252]
> 10 | CNc1cc(Nc2cccn([C@@H]3CC[C@H]3O)c2=O)nc2c(C(=O)N[C@@H]3CCC[C@@H](OC)C3)cnn12 [I-1253]

More lines, now with the values behind:

SMILES | Kd [nM]
CNc1cc(Nc2cccn(C3CCOCC3)c2=O)nc2c(C(=O)N[C@@H]3CCC[C@@](C)(OC)C3)cnn12 [I-1201] | 0.2 to 1
CNc1cc(Nc2cccn([C@H]3C[C@@H]3F)c2=O)nc2c(C(=O)N[C@@H]3CC[C@H](O)C3)cnn12 [I-1202] | 1 to 10
CNc1cc(Nc2cccn([C@@H]3C[C@H]3F)c2=O)nc2c(C(=O)N[C@@H]3CC[C@H](O)C3)cnn12 [I-1203] | < 0.2
CNc1cc(Nc2cccn(C3CC(F)(F)C3)c2=O)nc2c(C(=O)N[C@H]3COC[C@H]3O)cnn12 [I-1206] | 1 to 10
CNc1cc(Nc2cccn(C3CC(F)(F)C3)c2=O)nc2c(C(=O)N[C@@H]3CCC[C@@](C)(O)C3)cnn12 [I-1208] | 1 to 10
CNc1cc(Nc2cccn(C3CC(F)(F)C3)c2=O)nc2c(C(=O)N[C@@H]3CC[C@@H](O)C3)cnn12 [I-1211] | < 0.2
CNc1cc(Nc2cccn(C3CC(F)(F)C3)c2=O)nc2c(C(=O)N[C@@H]3CC[C@H](O)C3)cnn12 [I-1212] | > 10
CNc1cc(Nc2cccn(-c3cccnc3)c2=O)nc2c(C(=O)N[C@H]3CCC[C@H](OC)C3)cnn12 [I-1217] | < 0.2
CNc1cc(Nc2cccn(-c3cccnc3)c2=O)nc2c(C(=O)N[C@@H]3CCC[C@@H](OC)C3)cnn12 [I-1218] | 1 to 10
CNc1cc(-c2cn(C3CCOCC3)c3ncccc23)nc2c(C(=O)N[C@@H]3CCC[C@@]3(C)O)cnn12 [I-1221] | 0.2 to 1
CNc1cc(-c2cn(C3CCOCC3)c3ncccc23)nc2c(C(=O)N[C@H]3CCC[C@]3(C)O)cnn12 [I-1222] | < 0.2
CNc1cc(-c2cn([C@H]3CCC[C@@H]3OC)c3ncccc23)nc2c(C(=O)N[C@H]3CC[C@H]3O)cnn12 [I-1223, N-((1S,2R)-2-hydroxycyclobutyl)-5-(1-((1S,2S)-2-methoxycyclopentyl)-1H-pyrrolo[2,3-b]pyridin-3-yl)-7-(methylamino)pyrazolo[1,5-a]pyrimidine-3-carboxamide] | 0.2 to 1
CNc1cc(-c2cn([C@H]3CCC[C@@H]3OC)c3ncccc23)nc2c(C(=O)N[C@@H]3CC[C@@H]3O)cnn12 [I-1224, N-((1R,2S)-2-hydroxycyclobutyl)-5-(1-((1S,2S)-2-methoxycyclopentyl)-1H-pyrrolo[2,3-b]pyridin-3-yl)-7-(methylamino)pyrazolo[1,5-a]pyrimidine-3-carboxamide] | 1 to 10
CNc1cc(Nc2cccn(C3CCOCC3)c2=O)nc2c(C(=O)N[C@H]3CCC[C@H](O)C3)cnn12 [I-1225] | < 0.2
CNc1cc(Nc2cccn(C3CCOCC3)c2=O)nc2c(C(=O)N[C@@H]3CCC[C@@H](O)C3)cnn12 [I-1226] | 1 to 10
CNc1cc(-c2cn(CCCO)c3ncc(F)cc23)nc2c(C(=O)N[C@@H]3CC[C@H]3OC)cnn12 [I-1229] | < 0.2
CNc1cc(-c2cn(CCCO)c3ncc(F)cc23)nc2c(C(=O)N[C@H]3CC[C@@H]3OC)cnn12 [I-1230] | 0.2 to 1
CCO[C@H]1CC[C@@H]1NC(=O)c1cnn2c(NC)cc(Nc3cccn(-c4ccccn4)c3=O)nc12 [I-1231] | < 0.2

SMILES | Kd [nM]
CCO[C@@H]1CC[C@H]1NC(=O)c1cnn2c(NC)cc(Nc3cccn(-c4ccccn4)c3=O)nc12 [I-1232] | 0.2 to 1
CNc1cc(Nc2cccn(C(C)C)c2=O)nc2c(C(=O)N[C@@H]3CCC[C@@](C)(OC)C3)cnn12 [I-1235] | < 0.2
CNc1cc(Nc2cccn([C@@H]3CCCOC3)c2=O)nc2c(C(=O)N[C@@H]3CCC[C@@](C)(OC)C3)cnn12 [I-1236] | < 0.2
CNc1cc(Nc2cccn([C@H]3CCCOC3)c2=O)nc2c(C(=O)N[C@@H]3CCC[C@@](C)(OC)C3)cnn12 [I-1237] | > 10
CNc1cc(Nc2cccn3ccnc23)nc2c(C(=O)N[C@@H]3CCC[C@@]3(C)O)cnn12 [I-1238] | < 0.2
CNc1cc(Nc2cccn3ccnc23)nc2c(C(=O)N[C@H]3CCC[C@]3(C)O)cnn12 [I-1239] | < 0.2
CNc1cc(Nc2cccn(C(C)C)c2=O)nc2c(C(=O)N[C@@H]3CCC[C@@]3(C)O)cnn12 [I-1240] | < 0.2
CNc1cc(Nc2cccn(C(C)C)c2=O)nc2c(C(=O)N[C@H]3CCC[C@]3(C)O)cnn12 [I-1241] | < 0.2
CNc1cc(Nc2cccn(C(C)C)c2=O)nc2c(C(=O)N[C@H]3CCC[C@](C)(O)C3)cnn12 [I-1242] | < 0.2
CNc1cc(Nc2cccn(C(C)C)c2=O)nc2c(C(=O)N[C@@H]3CCC[C@@](C)(O)C3)cnn12 [I-1243] | 1 to 10
CNc1cc(-c2cn([C@@H]3CCC[C@H]3OC)c3ncccc23)nc2c(C(=O)N[C@H]3CC[C@H]3O)cnn12 [I-1246, N-((1S,2R)-2-hydroxycyclobutyl)-5-(1-((1R,2R)-2-methoxycyclopentyl)-1H-pyrrolo[2,3-b]pyridin-3-yl)-7-(methylamino)pyrazolo[1,5-a]pyrimidine-3-carboxamide] | 0.2 to 1
CNc1cc(-c2cn([C@@H]3CCC[C@H]3OC)c3ncccc23)nc2c(C(=O)N[C@@H]3CC[C@@H]3O)cnn12 [I-1247, N-((1R,2S)-2-hydroxycyclobutyl)-5-(1-((1R,2R)-2-methoxycyclopentyl)-1H-pyrrolo[2,3-b]pyridin-3-yl)-7-(methylamino)pyrazolo[1,5-a]pyrimidine-3-carboxamide] | < 0.2
CNc1cc(-c2cn([C@@H]3CCCOC3)c3ncccc23)nc2c(C(=O)N[C@H]3COC[C@H]3O)cnn12 [I-1250, N-(4-hydroxytetrahydrofuran-3-yl)-7-(methylamino)-5-(1-((R)-tetrahydro-2H-pyran-3-yl)-1H-pyrrol[2,3-b]pyridin-3-yl)pyrazol[1,5-a]pyrimidine-3-carboxamide] | 0.2 to 1
CNc1cc(-c2cn([C@@H]3CCCOC3)c3ncccc23)nc2c(C(N)=O)cnn12 [I-1255] | 0.2 to 1
CNc1cc(-c2cn([C@H]3CCCOC3)c3ncccc23)nc2c(C(N)=O)cnn12 [I-1256] | < 0.2
CNc1cc(-c2cn([C@H]3CCCOC3)c3ncccc23)nc2c(C(=O)N[C@H]3CC[C@H]3O)cnn12 [I-1258] | > 10
CNc1cc(Nc2cccn(-c3ocnc3C)c2=O)nc2c(C(=O)N[C@H]3CC[C@H]3O)cnn12 [I-1259] | > 10
